Data taken from patent publication US9314472B2, “Treatment and prevention of mastitis” (BRIGHAM YOUNG UNIVERSITY, priority 2012, dated 2016).
Counter-ions that a name gives are not always drawn.

Columns and labels:
[1] = Human food safety: total residue study of CSA-44 in bovine milk by HPLC with MS detection; format: in vivo, lactating Holstein cows; conditions: predicted; intramammary 120, 150 or 200 mg daily for three days
Excerpt: The objective of this study was to validate a method for the determination of CSA-44 in bovine milk by HPLC with MS detection. The protocol has been designed to fulfill the requirements outlined in the FDA/CVM Guidance for Industry #208^1. ^1Guidance for Industry #208: Studies to Evaluate the Metabolism and Residue Kinetics of Veterinary Drugs in Food-Producing Animals: Validation of Analytical Methods used in Residue Depletion Studies. VICH GL49. U.S. Department of Health and Human Services, Food and Drug Administration, Center for Veterinary Medicine. Sep. 15, 2011
A GLP-compliant total residue study was conducted in 3 healthy, lactating Holstein cows. Cows tested were in the middle of their 2nd or 3rd lactation. The more specific objective was to evaluate the safety of intramammary infusion of 120, 150 and 200 mg dosages of CSA-44 hydrochloride sterile saline (0.9% NaCl) suspension, respectively, in each of two front quarters daily for three consecutive days with an approximate 24-hour interval between infusions.
Three lactating female Holstein dairy cattle ranging from 2 to 5 years of age and representing low milk producers (13.2 kg to 24.0 kg/day) and high milk producers (25.0 kg to 31.9 kg/day) were used in the study. […]

[2] = Animal safety: udder irritation after intramammary infusion of CSA-44 sterile saline suspension; format: in vivo, lactating female Holstein dairy cattle; conditions: 120 mg
Protocol: The purpose of this example was to study the effects on dairy cows relative to udder irritation of intramammary infusion of a sterile formulation of CSA-44 containing either […] of CSA-44 per 10 mL plastet into both front quarters. More particularly, the study evaluated the safety of intramammary infusion of 120 mg, 150 mg and 200 mg CSA-44 hydrochloride sterile saline (0.9% NaCl) suspension, respectively, in each of two front quarters daily for three consecutive days with an approximate 24-hour interval between infusions.
Three lactating female Holstein dairy cattle ranging from 2 to 5 years of age and representing low milk producers (13.2 kg to 24.0 kg/day) and high milk producers (25.0 kg to 31.9 kg/day) were used in the study. Cows were enrolled based on the absence of mastitis pathogens, absence of clinical mastitis (normal strip cup and udder palpation), a somatic cell count (SCC) less than or equal to 200,000 per mL, and no edema or teat lesions.
Within each of the lactation/production subgroups (1st lactation high producers, 1st lactation low producers, ≧2nd lactation high producers, or ≧2nd lactation low producers), cows were assigned to receive either three doses of CSA-44 by intramammary infusion. There were no non-treated controls.
Following a 3-day pre-treatment clinical observation and milk sample collection period, animals received their assigned treatment. Measurements and observations continued during the treatment period and through Day 3 (60 hours) post treatment.
A CSA-44 sterile saline suspension (120 mg, 150 mg, or 200 mg) was administered as an intramammary infusion into both front quarters once at a 24-hour interval for three consecutive days. The following clinical and production measures were evaluated for a total of either 14 milkings: appearance of foremilk (strip cup evaluation), physical condition of udder, milk production, and general health.

Escherichia coli = test: Dose characterization study, CSA-44/propylene glycol formulation, intramammary treatment of clinical mastitis; format: in vivo, lactating dairy cows; conditions: 60 mg CSA-44 per quarter, infused eight to ten times at 12-hour interval; cured = no clinical signs 10 days post-treatment, milk visibly normal, SCC < 350,000 cells
Protocol: (§1) A first dose characterization study was conducted using CSA-44 hydrochloride with and without propylene glycol based in the formulation. This study enabled the selection of a dose to be used in a dose confirmation (field) study, which was conducted using two propylene glycol formulations and 60 mg of CSA-44 hydrochloride per 10 ml syringe.
(§2) The objective of this study was to evaluate the effectiveness of intramammary administered CSA-44, with and without propylene glycol as part of the formulation, for the treatment of clinical mastitis in lactating dairy cows.
(§3) A total of 42 cow quarters from Blue Star Dairy (BSD) were enrolled. Cows in their second or greater lactation, with an elevated somatic cell count (SCC) and either a positive milk culture for a mastitis pathogen or signs of clinical mastitis were assigned to one of two treatment groups: 1) ceftiofur hydrochloride administered 2-7 times, per label directions; and 2) 60 mg of CSA-44 per quarter, cows were infused eight to ten times at a 12-hour interval. A quarter was considered cured if there were no clinical signs of mastitis 10 days post-treatment, milk was visibly normal, and somatic cell count (SCC) was less than 350,000 cells. Using these criteria, cure rates for Group CSA treated cows were 87% for Staph. spp. (CNS and Staph. aureus), 90% for Escherichia coli, and 78% for Strep spp. (Streptococcus dysgalactiae, Strep. uberis, and Streptococcus sp).

[3] = system: Staph. spp. (CNS and Staph. aureus); test: as above; format: in vivo, lactating dairy cows; conditions: 60 mg CSA-44 per quarter, infused eight to ten times at 12-hour interval; cured = no clinical signs 10 days post-treatment, milk visibly normal, SCC < 350,000 cells
Protocol: as §1, §2, §3

[4] = system: Strep spp. (Streptococcus dysgalactiae, Strep. uberis, and Streptococcus sp); test: as above; format: in vivo, lactating dairy cows; conditions: 60 mg CSA-44 per quarter, infused eight to ten times at 12-hour interval; cured = no clinical signs 10 days post-treatment, milk visibly normal, SCC < 350,000 cells
Protocol: as §1, §2, §3

gram negative bacteria = test: CSA-44/saline formulation study, intramammary treatment of clinical mastitis, gram negative; format: in vivo, lactating dairy cattle; conditions: CSA-44 120 mg x3 or cephapirin sodium 200 mg x2 intramammary, 11 days post-treatment
Protocol: (§4) A second dose characterization study was conducted using a non-final (saline) formulation of CSA-44 hydrochloride. The study enabled the selection of a dose to be used in the dose confirmation (field) study, which was conducted using the saline formulation of CSA-44 hydrochloride.
(§5) The objective of this study was to evaluate the effectiveness of intramammary administered CSA-44, as a saline based formulation, for the treatment of clinical mastitis in lactating dairy cows.
(§6) The objective was to evaluate the effectiveness of intramammary infusion of CSA-44 hydrochloride sterile suspension three times at a 24-hour interval at 120.0 mg dosage in the affected quarter in comparison to a negative control or 200 mg of cephapirin sodium activity in a stable peanut oil gel for the treatment of clinical mastitis in lactating dairy cattle.
(§7) A total of 151 cows from 2 herds were enrolled. Cows were enrolled in the study when they had visually abnormal milk (clots, flakes, or watery secretion) or if udder swelling, heat, pain or redness were present and milk was not yet visually abnormal, but the California Mastitis Test (CMT) gave results of 2 or greater. A pre-treatment milk sample was obtained from each affected quarter(s) and cultured for the presence of organisms associated with mastitis; the culture data were not available prior to treatment assignments.
(§8) Cows were assigned in blocks of three to receive either 120 mg CSA-44 HCl, 200 mg cephapirin sodium, or no treatment. Enrollment was restricted to cows with one quarter affected with clinical mastitis.
(§9) CSA-44 (120 mg) or cephapirin sodium (200 mg) was administered as an intramammary infusion three times or two times, respectively, at a 24-hour interval beginning on the day of enrollment (Day 0). Cows assigned to the control group were left untreated. […]. Cows in their second or greater lactation, with an elevated somatic cell count (SCC) and either a positive milk culture for a mastitis pathogen or signs of clinical mastitis were assigned to one of three treatment groups. A quarter was considered cured if there were no clinical signs of mastitis, visibly normal milk, and a negative milk culture 11 days post-treatment. Using these criteria, cure rates for all mastitis cases were 28.0% (Control-0 mg), 63.0% (cephapirin sodium, 200 mg), and 75.0% (CSA-44, 120 mg).
Test data for gram negative bacteria are set forth in Table 2 below and graphically illustrated in FIG. 2B.

[5] = system: combined gram positive and gram negative bacteria; test: CSA-44/saline formulation study, intramammary treatment of clinical mastitis, all cases; format: in vivo, lactating dairy cattle; conditions: for cure rate for all mastitis cases: CSA-44 120 mg three times or cephapirin sodium 200 mg two times, intramammary, 24-hour interval, cured = no clinical signs, visibly normal milk, negative milk culture 11 days post-treatment; for % Cure / Cure (number) / Not Cure (number): combined gram positive and gram negative, CSA-44 120 mg x3 or cephapirin sodium 200 mg x2 intramammary, 11 days post-treatment
Protocol: as §4, §5, §6, §7, §8, §9
Test data for combined gram positive and gram negative bacteria are set forth in Table 3 below and graphically illustrated in FIG. 2C.

gram positive bacteria = test: CSA-44/saline formulation study, intramammary treatment of clinical mastitis, gram positive; format: in vivo, lactating dairy cattle; conditions: CSA-44 120 mg x3 or cephapirin sodium 200 mg x2 intramammary, 11 days post-treatment
Protocol: as §4, §5, §6, §7, §8, §9
Test data for gram positive bacteria are set forth in Table 1 below and graphically illustrated in FIG. 2A.

[6] = system: coagulase-negative staphylococci, Streptococcus dysgalactae, and Eshcherica coli; conditions: from Freedom Of Information Summary NADA 141-238, sterile suspension of ceftiofur hydrochloride; cited from earlier work
[7] = 150 mg or 200 mg in sterile saline, intramammary into both front quarters, once daily for three consecutive days

CCCCCCCCOC(=O)CC[C@@H](C)[C@H]1CC[C@H]2[C@@H]3[C@H](OC(=O)CCN)C[C@@H]4C[C@H](OC(=O)CCN)CC[C@]4(C)[C@H]3C[C@H](OC(=O)CCN)[C@]12C [CSA-44]
time until CSA-44 is undetectable in milk [1]: 60 to 72 h | time until residues in the milk are substantially depleted [1]: 24 to 48 h | milk quality appearance and strip cup response during treatment [2, 7]: no change in milk quality | udder physical condition scores, strip cup analyses, milk production (milk weight and percent milk fat) in response to treatment [2, 7]: no overall differences | clinical safety and irritation of mammary tissue ([2]; sterile saline formulation, 150 mg or 200 mg per 10 mL dose, infused once daily for up to three consecutive days): clinically safe and not irritating to the mammary tissue | cure rate (Escherichia coli): 90% | cure rate [3]: 87% | cure rate [4]: 78% | % Cure (gram negative bacteria): 84% | Cure (number) (gram negative bacteria): 16 | Not Cure (number) (gram negative bacteria): 3 | cure rate for all mastitis cases [5]: 75.0% | % Cure [5]: 75% | Cure (number) [5]: 45 | Not Cure (number) [5]: 15 | % Cure (gram positive bacteria): 70% | Cure (number) (gram positive bacteria): 29 | Not Cure (number) (gram positive bacteria): 12

CO/N=C(\C(=O)N[C@@H]1C(=O)N2C(C(=O)O)=C(CSC(=O)c3ccco3)CS[C@H]12)c1csc(N)n1 [Ceftiofur HCl, ceftiofur hydrochloride]
% Cure [6]: 70% | Cure (number) [6]: 38 | Not Cure (number) [6]: 16

CC(=O)OCC1=C(C(=O)O)N2C(=O)[C@@H](NC(=O)CSc3ccncc3)[C@H]2SC1 [Cephapirin Sodium, cephapirin sodium, reference compound]
% Cure (gram negative bacteria): 61% | Cure (number) (gram negative bacteria): 11 | Not Cure (number) (gram negative bacteria): 7 | cure rate for all mastitis cases [5]: 63.0% | % Cure [5]: 62% | Cure (number) [5]: 32 | Not Cure (number) [5]: 20 | % Cure (gram positive bacteria): 62% | Cure (number) (gram positive bacteria): 21 | Not Cure (number) (gram positive bacteria): 13
